Reference: ChEMBL document CHEMBL3739345, “Design and synthesis of potent and selective inhibitors of BRD7 and BRD9 bromodomains” (Medchemcomm, 2015)
The source made the active and inactive calls. The rule behind the calls is not given here.

Legend:
[1] = target: T1, Bromodomain-containing protein 7 (Homo sapiens) (UniProt Q9NPI1); test: Binding affinity to human BRD7 assessed as change in melting temperature at 10 uM by differential scanning fluorimetry
T1 sequence (whole entry): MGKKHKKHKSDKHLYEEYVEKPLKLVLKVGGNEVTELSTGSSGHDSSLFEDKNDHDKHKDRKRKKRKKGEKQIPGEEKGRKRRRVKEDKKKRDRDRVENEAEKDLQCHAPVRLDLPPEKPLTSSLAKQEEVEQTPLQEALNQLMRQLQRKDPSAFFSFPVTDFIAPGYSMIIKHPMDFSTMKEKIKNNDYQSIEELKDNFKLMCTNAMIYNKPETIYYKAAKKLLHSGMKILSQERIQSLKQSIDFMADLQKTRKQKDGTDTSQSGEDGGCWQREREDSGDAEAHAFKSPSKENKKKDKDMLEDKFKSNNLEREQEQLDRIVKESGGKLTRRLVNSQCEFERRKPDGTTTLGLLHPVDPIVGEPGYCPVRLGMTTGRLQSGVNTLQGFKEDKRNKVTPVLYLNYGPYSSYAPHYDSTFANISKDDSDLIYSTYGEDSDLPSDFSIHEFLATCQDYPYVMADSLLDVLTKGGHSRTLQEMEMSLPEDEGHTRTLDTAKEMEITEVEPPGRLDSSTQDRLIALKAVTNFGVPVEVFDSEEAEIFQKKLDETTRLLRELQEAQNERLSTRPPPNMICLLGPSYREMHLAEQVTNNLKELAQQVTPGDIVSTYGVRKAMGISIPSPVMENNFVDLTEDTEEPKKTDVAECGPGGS

[2] = target: T2, Bromodomain-containing protein 1 (Homo sapiens) (UniProt O95696); test: Binding affinity to human BRD1 at 10 uM by differential scanning fluorimetry
T2 sequence (whole entry): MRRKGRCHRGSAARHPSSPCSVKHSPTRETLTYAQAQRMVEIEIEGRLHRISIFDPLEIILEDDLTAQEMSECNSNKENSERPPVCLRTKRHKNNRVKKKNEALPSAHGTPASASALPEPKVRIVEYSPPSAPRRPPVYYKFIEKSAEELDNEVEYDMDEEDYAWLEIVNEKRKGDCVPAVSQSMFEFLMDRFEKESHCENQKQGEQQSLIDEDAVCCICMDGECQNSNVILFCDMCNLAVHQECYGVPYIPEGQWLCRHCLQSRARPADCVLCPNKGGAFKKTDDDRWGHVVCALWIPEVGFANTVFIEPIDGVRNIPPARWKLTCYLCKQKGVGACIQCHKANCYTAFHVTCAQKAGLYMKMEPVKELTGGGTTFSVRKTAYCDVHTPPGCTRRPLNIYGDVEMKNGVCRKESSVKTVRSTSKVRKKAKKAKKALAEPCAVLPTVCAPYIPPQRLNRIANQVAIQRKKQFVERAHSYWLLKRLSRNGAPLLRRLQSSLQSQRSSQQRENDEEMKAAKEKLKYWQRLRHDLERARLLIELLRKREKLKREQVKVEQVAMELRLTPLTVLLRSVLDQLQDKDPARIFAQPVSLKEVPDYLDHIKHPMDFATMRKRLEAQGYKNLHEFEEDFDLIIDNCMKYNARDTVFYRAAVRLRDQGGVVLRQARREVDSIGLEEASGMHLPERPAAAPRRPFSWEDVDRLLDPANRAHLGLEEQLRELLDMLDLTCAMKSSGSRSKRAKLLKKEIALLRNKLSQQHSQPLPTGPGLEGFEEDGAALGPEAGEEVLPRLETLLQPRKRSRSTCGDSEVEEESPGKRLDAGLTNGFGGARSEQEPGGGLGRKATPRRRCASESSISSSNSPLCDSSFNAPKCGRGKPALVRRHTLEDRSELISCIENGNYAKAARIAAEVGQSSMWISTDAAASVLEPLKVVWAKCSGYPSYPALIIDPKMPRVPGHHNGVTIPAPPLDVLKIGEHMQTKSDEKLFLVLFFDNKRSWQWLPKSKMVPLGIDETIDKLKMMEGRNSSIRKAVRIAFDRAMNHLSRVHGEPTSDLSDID

[3] = target: Bromodomain-containing protein 3 (Homo sapiens) (UniProt Q15059); test: Binding affinity to human BRD3 at 10 uM by differential scanning fluorimetry
[4] = target: T3, Bromodomain-containing protein 9 (Homo sapiens, UniProt Q9H8M2); test: Inhibition of human BRD9 by alpha screen assay
T3 sequence (Q9H8M2 whole entry): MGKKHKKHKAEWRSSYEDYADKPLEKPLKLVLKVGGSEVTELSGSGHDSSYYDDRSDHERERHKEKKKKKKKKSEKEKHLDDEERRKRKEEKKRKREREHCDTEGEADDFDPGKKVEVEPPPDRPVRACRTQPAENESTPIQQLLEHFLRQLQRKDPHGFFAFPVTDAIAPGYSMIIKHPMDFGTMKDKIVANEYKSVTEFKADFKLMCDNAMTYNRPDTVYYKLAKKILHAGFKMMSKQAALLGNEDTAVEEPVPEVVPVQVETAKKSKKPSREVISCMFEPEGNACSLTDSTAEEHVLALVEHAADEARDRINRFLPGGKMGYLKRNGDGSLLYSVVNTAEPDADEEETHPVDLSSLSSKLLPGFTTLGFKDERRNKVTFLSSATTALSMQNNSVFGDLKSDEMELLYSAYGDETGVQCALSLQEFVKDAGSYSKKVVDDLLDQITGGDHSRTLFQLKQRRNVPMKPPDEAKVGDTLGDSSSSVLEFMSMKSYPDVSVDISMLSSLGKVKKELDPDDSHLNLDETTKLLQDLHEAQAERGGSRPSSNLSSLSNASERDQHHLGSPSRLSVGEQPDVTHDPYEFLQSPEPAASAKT

[5] = target: Bromodomain adjacent to zinc finger domain protein 2B (Homo sapiens, UniProt Q9UIF8); test: Binding affinity to human BAZ2B at 10 uM by differential scanning fluorimetry
[6] = target: T4, Bromodomain-containing protein 7 (Homo sapiens, UniProt Q9NPI1); test: Binding affinity to human BRD7 by isothermal titration calorimetry
T4 sequence (Q9NPI1 whole entry): T1 sequence (whole entry)

[7] = target: T5, Bromodomain-containing protein 4 (Homo sapiens, UniProt O60885); test: Binding affinity to human BRD4 at 15 uM by isothermal titration calorimetry
[8] = target: T5, Bromodomain-containing protein 4; test: Binding affinity to human BRD4 assessed as change in melting temperature at 10 uM by differential scanning fluorimetry

Bromodomain adjacent to zinc finger domain protein 2B, sequence (Q9UIF8 whole entry, the tested form may be a part): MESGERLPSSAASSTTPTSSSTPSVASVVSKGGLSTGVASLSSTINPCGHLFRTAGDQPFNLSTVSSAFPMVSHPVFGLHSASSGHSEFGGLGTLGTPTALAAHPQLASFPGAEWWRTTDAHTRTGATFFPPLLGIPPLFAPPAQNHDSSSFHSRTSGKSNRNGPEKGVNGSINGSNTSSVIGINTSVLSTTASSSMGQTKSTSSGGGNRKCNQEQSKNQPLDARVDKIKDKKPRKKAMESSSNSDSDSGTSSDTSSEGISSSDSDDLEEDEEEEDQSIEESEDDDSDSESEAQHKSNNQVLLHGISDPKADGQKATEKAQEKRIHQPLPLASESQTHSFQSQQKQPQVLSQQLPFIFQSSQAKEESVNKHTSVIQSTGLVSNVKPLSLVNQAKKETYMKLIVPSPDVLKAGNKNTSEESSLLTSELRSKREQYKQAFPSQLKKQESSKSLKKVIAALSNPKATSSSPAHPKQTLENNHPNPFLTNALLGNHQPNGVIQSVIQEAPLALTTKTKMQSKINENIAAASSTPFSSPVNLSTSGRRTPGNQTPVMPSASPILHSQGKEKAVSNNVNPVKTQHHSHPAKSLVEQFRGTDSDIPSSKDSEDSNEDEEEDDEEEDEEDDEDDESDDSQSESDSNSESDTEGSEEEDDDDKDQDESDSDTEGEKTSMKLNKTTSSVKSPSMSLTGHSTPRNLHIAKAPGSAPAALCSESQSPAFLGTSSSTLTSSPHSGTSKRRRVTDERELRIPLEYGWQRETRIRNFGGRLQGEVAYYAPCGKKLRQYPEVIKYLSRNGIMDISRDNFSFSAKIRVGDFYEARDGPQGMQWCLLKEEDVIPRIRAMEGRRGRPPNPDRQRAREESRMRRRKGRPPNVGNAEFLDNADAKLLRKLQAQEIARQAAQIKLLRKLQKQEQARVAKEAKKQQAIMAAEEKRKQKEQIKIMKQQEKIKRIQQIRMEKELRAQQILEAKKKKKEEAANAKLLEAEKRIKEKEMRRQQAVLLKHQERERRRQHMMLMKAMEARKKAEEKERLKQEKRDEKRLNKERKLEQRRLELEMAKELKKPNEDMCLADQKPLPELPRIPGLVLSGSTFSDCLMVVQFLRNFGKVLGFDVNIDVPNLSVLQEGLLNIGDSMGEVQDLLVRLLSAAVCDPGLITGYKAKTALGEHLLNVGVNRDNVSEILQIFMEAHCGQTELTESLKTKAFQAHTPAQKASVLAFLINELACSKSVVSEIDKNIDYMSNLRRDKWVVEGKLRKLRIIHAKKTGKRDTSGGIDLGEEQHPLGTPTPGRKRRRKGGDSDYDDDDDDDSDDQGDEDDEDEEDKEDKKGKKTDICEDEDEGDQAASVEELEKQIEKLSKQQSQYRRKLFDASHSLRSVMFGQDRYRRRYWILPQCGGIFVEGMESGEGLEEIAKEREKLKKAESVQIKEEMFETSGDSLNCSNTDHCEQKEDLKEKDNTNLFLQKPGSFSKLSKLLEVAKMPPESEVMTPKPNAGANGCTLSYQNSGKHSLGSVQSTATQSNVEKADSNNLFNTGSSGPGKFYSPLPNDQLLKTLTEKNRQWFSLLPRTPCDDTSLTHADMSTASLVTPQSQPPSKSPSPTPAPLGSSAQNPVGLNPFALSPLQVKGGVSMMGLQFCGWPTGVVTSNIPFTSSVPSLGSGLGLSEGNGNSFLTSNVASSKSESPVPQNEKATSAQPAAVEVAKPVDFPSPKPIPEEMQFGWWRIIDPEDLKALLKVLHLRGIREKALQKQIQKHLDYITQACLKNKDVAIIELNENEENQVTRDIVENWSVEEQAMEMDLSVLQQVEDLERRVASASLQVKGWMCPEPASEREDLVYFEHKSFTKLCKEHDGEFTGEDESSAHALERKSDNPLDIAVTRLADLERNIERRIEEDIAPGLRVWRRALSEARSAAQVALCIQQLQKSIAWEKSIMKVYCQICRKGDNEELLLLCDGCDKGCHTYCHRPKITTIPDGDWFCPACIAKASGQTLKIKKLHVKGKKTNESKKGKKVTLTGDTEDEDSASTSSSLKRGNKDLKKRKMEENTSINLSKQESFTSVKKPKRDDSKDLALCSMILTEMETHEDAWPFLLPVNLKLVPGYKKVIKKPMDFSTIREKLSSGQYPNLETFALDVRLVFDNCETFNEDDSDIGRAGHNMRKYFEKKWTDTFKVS
Bromodomain-containing protein 3 (Homo sapiens), sequence (Q15059 2-726 limits assumed): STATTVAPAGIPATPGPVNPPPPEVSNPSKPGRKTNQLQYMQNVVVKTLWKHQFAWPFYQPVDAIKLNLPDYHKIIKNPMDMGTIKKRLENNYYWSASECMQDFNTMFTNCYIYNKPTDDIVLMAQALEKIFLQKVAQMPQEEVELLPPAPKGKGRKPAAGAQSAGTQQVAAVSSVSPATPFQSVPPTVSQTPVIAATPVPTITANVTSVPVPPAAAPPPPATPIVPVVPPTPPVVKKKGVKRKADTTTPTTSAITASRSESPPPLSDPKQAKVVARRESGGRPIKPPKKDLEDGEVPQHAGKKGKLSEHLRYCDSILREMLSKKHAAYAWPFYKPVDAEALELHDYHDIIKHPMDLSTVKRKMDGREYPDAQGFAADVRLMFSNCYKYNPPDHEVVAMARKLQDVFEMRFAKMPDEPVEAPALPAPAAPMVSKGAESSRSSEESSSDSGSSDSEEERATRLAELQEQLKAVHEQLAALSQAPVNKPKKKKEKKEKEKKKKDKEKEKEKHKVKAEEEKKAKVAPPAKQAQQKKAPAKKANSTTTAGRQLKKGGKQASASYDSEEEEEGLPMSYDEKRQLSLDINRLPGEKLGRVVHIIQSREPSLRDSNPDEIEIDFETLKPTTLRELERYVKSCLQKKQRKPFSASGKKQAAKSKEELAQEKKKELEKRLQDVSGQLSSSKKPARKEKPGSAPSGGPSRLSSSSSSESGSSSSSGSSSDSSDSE

- ΔTm [1]: 5.6 °C
- Activity [2]: Active
- Activity [3]: Active
- IC50 [4]: 126 nM
- Activity [5]: Active
- Kd [6]: 368 nM
- Activity [7]: inactive
- ΔTm [8]: 1.3 °C
SMILES: CC(=O)c1cc(-c2cccc3nccn23)c2cc(N3CCOCC3)ccn12
